Assay in all cases: URAT1 uric acid transport activity assay
Test [1] concerns the target T1, r-P27S rURAT1 point mutant (Rattus norvegicus, UniProt Q3ZAV1, P27S).
T1 sequence (Q3ZAV1 1-553 P27S): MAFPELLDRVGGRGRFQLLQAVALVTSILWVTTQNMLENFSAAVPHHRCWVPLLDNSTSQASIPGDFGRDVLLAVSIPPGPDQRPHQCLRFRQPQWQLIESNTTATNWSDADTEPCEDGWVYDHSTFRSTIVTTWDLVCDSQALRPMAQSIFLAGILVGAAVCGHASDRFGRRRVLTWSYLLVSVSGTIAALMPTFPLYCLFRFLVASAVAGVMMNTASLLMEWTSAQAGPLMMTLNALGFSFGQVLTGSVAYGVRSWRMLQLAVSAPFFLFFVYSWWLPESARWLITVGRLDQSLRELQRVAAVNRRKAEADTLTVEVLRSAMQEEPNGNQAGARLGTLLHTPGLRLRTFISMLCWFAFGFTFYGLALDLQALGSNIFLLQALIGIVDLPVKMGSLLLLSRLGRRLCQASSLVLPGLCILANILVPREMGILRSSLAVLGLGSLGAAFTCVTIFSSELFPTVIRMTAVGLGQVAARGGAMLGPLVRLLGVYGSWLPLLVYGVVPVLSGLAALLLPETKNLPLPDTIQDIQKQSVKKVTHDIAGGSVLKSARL
It is filed as cell-based. In short, it runs like this:
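Rat URAT1 point or double mutants in pCMV6/neo were transiently transfected into cells and assayed the next day. Compounds were preincubated for 5 minutes, then 100 μM 14C-uric acid uptake was measured over 10 minutes in triplicate. IC50 came from four-parameter variable-slope nonlinear regression.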

For the next test, the target named is T2, r-h TM7 URAT1 chimera (Rattus norvegicus, UniProt Q3ZAV1, F351C/M354T/Y365F).
T2 construct: expressed in transfected cells; host or cells: HEK-293T
T2 sequence (Q3ZAV1 1-553 F351C/M354T/Y365F): T1 sequence (Q3ZAV1 1-553 P27S) with S27P, F351C, M354T, Y365F
The class given is cell-based, human/rat. An excerpt: (§1) hURAT1 (GenBank BC053348.1) and rURAT1 (NCBI NM_001034943.1) genes were purchased from Origene Technologies, Inc. and subcloned into pCMV6/neo using NotI, creating pCMV6/neo-hURAT1 and pCMV6/neo-rURAT1. Mutants were produced by polymerase chain reaction (PCR) or site-directed mutagenesis using the QuikChange Lightning Multi Site-Directed Mutagenesis Kit (Agilent Technologies). […] Detailed methods are provided in Supplementary Methods, and primers are listed in Supplementary Table 1. […] Residues in rURAT1 and hOAT1 that correspond to the residues in hURAT1 were identified from aligned protein sequences (Supplementary Fig. 1)[50].
(§2) DNA (10 μg) was mixed with 30 μl of DreamFect Gold (Boca Scientific) in 2 ml OptiMem (Life Technologies). After 20 minutes, 18 ml of media containing 2 × 10^7 cells in suspension was added and mixed, and 200 μl per well were plated onto white clear-bottomed poly-D-lysine coated 96-well plates (BD Biosciences). The cells were assayed the following day.
(§3) Compounds were serially diluted into assay buffer and added to the cells for 5 minutes prior to addition of radiolabelled uric acid substrate. URAT1-expressing cells were incubated with 100 μM ^14C-uric acid for 10 minutes. […] Each treatment was measured in triplicate.
(§4) Unlabelled uric acid was prepared at a 20 mM stock just prior to use in a solution containing 20 mM dibasic potassium phosphate and 20 mM potassium hydroxide.
(§5) Nonlinear regression analyses using GraphPad Prism software were used to calculate the potency of URAT1 inhibitors (IC50 values) from log (inhibitor) versus response - variable slope (four parameters) equations. Statistical significance was assessed using Student’s unpaired t-tests.

Another test addresses T3, r-h TM11 URAT1 chimera (Rattus norvegicus, UniProt Q3ZAV1, M481I/V474M).
T3 sequence (Q3ZAV1 1-553 V474M/M481I): T1 sequence (Q3ZAV1 1-553 P27S) with S27P, V474M, M481I
The class given is cell-based, human/rat.
From the text: as §1, §2, §3, §4, §5

Numbering of substitutions follows the chain as printed. Where two headings read alike, the source gives them in different places.

Take `CCc1oc2ccccc2c1C(=O)c1cc(Br)c(O)c(Br)c1` [benzbromarone]: the values for the 50% inhibitory concentration (IC50) (in test [1]; against r-h TM7 URAT1 chimera; on r-h TM11 URAT1 chimera) were 16 ± 1.7 µM, 5.7 ± 0.25 µM and 12 ± 0.48 µM, respectively.

In the case of `O=C(O)CSc1nnc(Br)n1-c1ccc(C2CC2)c2ccccc12` [lesinurad, 2-((5-bromo-4-(4-cyclopropylnaphthalen-1-yl)-4H-1,2,4-triazol-3-yl)thio)acetic acid], the IC50 (in general, the midpoint of a concentration-inhibition curve) was 77 ± 3.2 µM in test [1] (r-P27S, MES pH 5.5, 100 μM 14C-uric acid, read-out: IC50 (uric acid transport)); 6.9 ± 0.99 µM on r-h TM7 URAT1 chimera (r-h TM7, MES pH 5.5, 100 μM 14C-uric acid, read-out: IC50 (uric acid transport)); 62 ± 3.6 µM on r-h TM11 URAT1 chimera (r-h TM11, MES pH 5.5, 100 μM 14C-uric acid, read-out: IC50 (uric acid transport)).

Take `O=C1C(CC[S+]([O-])c2ccccc2)C(=O)N(c2ccccc2)N1c1ccccc1` (stereo not shown) [sulfinpyrazone]: the “fold higher affinity of r-P27S compared to rURAT1” value in test [1] (from IC50 values) is on record as 2.1 fold. Also, the IC50 came out at 321 ± 77 µM in test [1] (r-P27S, HEPES pH 7.3, 100 μM 14C-uric acid, read-out: IC50 (uric acid transport)); 243 ± 22 µM at r-h TM7 URAT1 chimera (r-h TM7, HEPES pH 7.3, 100 μM 14C-uric acid, read-out: IC50 (uric acid transport)); 342 ± 32 µM on r-h TM11 URAT1 chimera (r-h TM11, HEPES pH 7.3, 100 μM 14C-uric acid, read-out: IC50 (uric acid transport)).

For the origin of these results see article PMC5054527, “Mechanism of high affinity inhibition of the human urate transporter URAT1” (Scientific Reports, 2016).
